ChEMBL document CHEMBL3877329, “Antiprotozoal glutathione derivatives with flagellar membrane binding activity against T. brucei rhodesiense” (Bioorg Med Chem, 2017)
pEC50: −log10 of the molar value. The source made the active and inactive calls. The rule behind the calls is not given here.

How the values were obtained:
[1] = system: Trypanosoma brucei rhodesiense; assay: Antitrypanosomal activity against Trypanosoma brucei rhodesiense STIB900 bloodstream trypomastigote forms measured on day 3 post treatment by alamar blue assay; format: functional; details: STIB900, 72 h, read-out: ED50 (the source's name)
[2] = Selectivity index, ratio of ED50 for human KB cells to ED50 for Trypanosoma brucei rhodesiense STIB900 bloodstream trypomastigote forms; format: toxicity, cell-based; details: read-out: Ratio ED50
[3] = system: Trypanosoma cruzi; assay: Antitrypanosomal activity against Trypanosoma cruzi MHOM/BR/OO/Y trypomastigotes infected in CD1 mouse peritoneal macrophages after 3 days; format: functional; details: 72 h, read-out: ED50 (the source's name)
[4] = Cytotoxicity against human KB cells after 3 days by fluorometric assay; format: toxicity, cell-based; details: read-out: ED50
[5] = system: Leishmania donovani; assay: Antileishmanial activity against Leishmania donovani MHOM/ET/67/HU3 amastigotes infected in CD1 mouse peritoneal macrophages after 5 days; format: functional; details: for pEC50: MHOM/ET/67/HU3, 120 h, read-out: ED50 (the source's name)
[6] = Drug release from Trypanosoma brucei brucei S247 bloodstream forms cell membrane treated with N-benzyloxy carbonyl-S-(4-bromobenzyl)glutathione dimethyl ester at 50 uM after 120 mins in presence of 6 M urea by HPLC-UV method; format: ADME, tissue-based; details: blood, 2 h
[7] = Drug release from Trypanosoma brucei brucei S247 bloodstream forms cell membrane treated with N-benzyloxy carbonyl-S-(4-bromobenzyl)glutathione dimethyl ester at 50 uM after 120 mins in presence of 1 M NaCl by HPLC-UV method; format: ADME; details: 2 h
[8] = species: Mus musculus; assay: Cytotoxicity against CD1 mouse peritoneal macrophages assessed as induction of cell membrane lysis at 30 uM by optical microscopic method; format: toxicity; details: peritoneal macrophage
[9] = system: Trypanosoma brucei brucei; assay: Antitrypanosomal activity against Trypanosoma brucei brucei S247 bloodstream forms assessed as swirling motion of cell particles at 50 uM after 1 hr by optical microscopic method; format: functional
[10] = Drug uptake in Trypanosoma brucei brucei S247 bloodstream forms at 50 uM after 5 mins by HPLC-UV method; format: ADME
[11] = Drug release from Trypanosoma brucei brucei S247 bloodstream forms cell membrane at 50 uM after 120 mins in presence of 6 M urea by HPLC-UV method; format: ADME, tissue-based; details: blood, 2 h
[12] = system: Trypanosoma brucei brucei; assay: Antitrypanosomal activity against Trypanosoma brucei brucei S247 bloodstream forms assessed as swelling of parasite head at 50 uM after 5 mins by optical microscopic method; format: functional
[13] = Drug release fromTrypanosoma brucei brucei S247 bloodstream forms cell membrane at 50 uM after 120 mins in presence of 1 M NaCl by HPLC-UV method; format: ADME; details: trypanosoma brucei brucei, 2 h
[14] = system: Trypanosoma brucei brucei; assay: Antitrypanosomal activity against Trypanosoma brucei brucei S247 bloodstream forms; format: functional; details: read-out: ED50 (the source's name)
[15] = system: Trypanosoma brucei brucei; assay: Antitrypanosomal activity against Trypanosoma brucei brucei S247 bloodstream forms assessed as immobility of parasite at 50 uM up to 1 min by optical microscopic method; format: functional
[16] = system: Trypanosoma brucei brucei; assay: Antitrypanosomal activity against Trypanosoma brucei brucei S247 bloodstream forms assessed as circular appearance at 50 uM after 30 to 40 mins by optical microscopic method; format: functional

Row | Compound | pEC50 [1] | selectivity ratio [2] | pEC50 [3] | CC50 at 72 h [4] | pEC50 [5] | further results
1 | CCCCOC(=O)CNC(=O)[C@H](CSc1ccc([N+](=O)[O-])cc1[N+](=O)[O-])NC(=O)CC[C@H](NC(=O)CCc1c[nH]c2ccccc12)C(=O)OCCCC | 6.52 | 87 | 4.46 | 26 µM | – | –
2 | O=C(Cn1ccnc1[N+](=O)[O-])NCc1ccccc1 [BENZNIDAZOLE] | – | – | 5.36 | – | – | –
3 | N[C@@H](CCC(=O)N[C@@H](CSc1ccc([N+](=O)[O-])cc1[N+](=O)[O-])C(=O)NCC(=O)O)C(=O)O | < 4.52 | – | < 4.52 | – | < 4.52 | –
4 | CCCCOC(=O)CNC(=O)[C@H](CSc1ccc([N+](=O)[O-])cc1[N+](=O)[O-])NC(=O)CC[C@H](NC(=O)/C=C/c1ccccc1)C(=O)OCCCC | 6.55 | 123 | < 4.52 | 34.4 µM | – | –
5 | CCCCOC(=O)CNC(=O)[C@H](CSc1ccc([N+](=O)[O-])cc1[N+](=O)[O-])NC(=O)CC[C@H](NC(=O)CC(C)C)C(=O)OCCCC | 5.94 | 51.4 | < 4.52 | 59.6 µM | < 4.52 | –
6 | CCCCOC(=O)CNC(=O)[C@H](CSc1ccc([N+](=O)[O-])cc1[N+](=O)[O-])NC(=O)CC[C@H](NC(=O)C(C)(C)C)C(=O)OCCCC | 6.22 | 139 | 5.08 | 83.4 µM | – | –
7 | CCCCOC(=O)CNC(=O)[C@H](CSc1ccc([N+](=O)[O-])cc1[N+](=O)[O-])NC(=O)CC[C@H](Nc1ccc([N+](=O)[O-])cc1[N+](=O)[O-])C(=O)OCCCC | 6.14 | > 417 | – | > 300 µM | – | –
8 | O=C(O)CNC(=O)[C@H](CSCc1ccc(Br)cc1)NC(=O)CC[C@H](NC(=O)OCc1ccccc1)C(=O)O | – | – | – | – | – | Drug uptake [6]: 12%
9 | CCCCOC(=O)CNC(=O)[C@H](CSc1ccc([N+](=O)[O-])cc1[N+](=O)[O-])NC(=O)CC[C@H](NC(=O)OC(C)(C)C)C(=O)OCCCC | 6.66 | 320 | 4.78 | 70.4 µM | 5.00 | –
10 | CCCCOC(=O)CNC(=O)[C@H](CSc1ccc([N+](=O)[O-])cc1[N+](=O)[O-])NC(=O)CC[C@H](Nc1nc(N)nc(Cl)n1)C(=O)OCCCC | 4.73 | > 15.9 | – | > 300 µM | – | –
11 | CCCCOC(=O)CNC(=O)[C@H](CSc1ccc([N+](=O)[O-])cc1[N+](=O)[O-])NC(=O)CC[C@H](NC(=O)CCc1ccccc1)C(=O)OCCCC | 5.69 | > 148 | < 4.52 | > 300 µM | < 4.52 | –
12 | CCCCOC(=O)CNC(=O)[C@H](CSc1ccc([N+](=O)[O-])cc1[N+](=O)[O-])NC(=O)CC[C@H](NC(=O)OC)C(=O)OCCCC | 5.67 | > 139 | 4.52 | > 300 µM | < 4.52 | –
13 | Sodium stibogluconate | – | – | – | – | – | ED50 [5]: 33 µg/mL
14 | CCCCCCCCCCCCCC(=O)N[C@@H](CCC(=O)N[C@@H](CSc1ccc([N+](=O)[O-])cc1[N+](=O)[O-])C(=O)NCC(=O)OCCCC)C(=O)OCCCC | 4.49 | > 9.2 | < 4.52 | > 300 µM | – | –
15 | CCCCOC(=O)CNC(=O)[C@H](CSc1ccc([N+](=O)[O-])cc1[N+](=O)[O-])NC(=O)CC[C@H](NC(=O)c1ccccc1)C(=O)OCCCC | 6.26 | > 545 | 4.64 | > 300 µM | – | –
16 | CCCCOC(=O)CNC(=O)[C@H](CSc1ccc([N+](=O)[O-])cc1[N+](=O)[O-])NC(=O)CC[C@H](NC(=O)OC12CC3CC(CC(C3)C1)C2)C(=O)OCCCC | 6.30 | > 600 | 5.35 | > 300 µM | 5.00 | –
17 | CCCCOC(=O)CNC(=O)[C@H](CSc1ccc([N+](=O)[O-])cc1[N+](=O)[O-])NC(=O)CC[C@H](NC(=O)CC(C)(C)C)C(=O)OCCCC | 5.36 | 57.1 | 4.92 | 250 µM | – | –
18 | CCCCOC(=O)CNC(=O)[C@H](CSc1ccc([N+](=O)[O-])cc1[N+](=O)[O-])NC(=O)CC[C@H](NC(C)=O)C(=O)OCCCC | 5.19 | > 46 | 4.42 | > 300 µM | – | –
19 | COC(=O)CNC(=O)[C@H](CSCc1ccc(Br)cc1)NC(=O)CC[C@H](NC(=O)OCc1ccccc1)C(=O)O | – | – | – | – | – | Drug uptake [7]: 24%; Drug uptake [6]: 8%
20 | CCCCOC(=O)CNC(=O)[C@H](CSc1ccc([N+](=O)[O-])cc1[N+](=O)[O-])NC(=O)CC[C@H](NC(=O)COc1ccccc1)C(=O)OCCCC | 6.22 | > 500 | < 4.52 | > 300 µM | – | –
21 | CCCCOC(=O)CNC(=O)[C@H](CSc1ccc([N+](=O)[O-])cc1[N+](=O)[O-])NC(=O)CC[C@H](NC(=O)OCc1ccccc1)C(=O)OCCCC | 6.38 | 227 | – | 95.2 µM | < 4.52 | –
22 | CCCCOC(=O)CNC(=O)[C@H](CSc1ccc([N+](=O)[O-])cc1[N+](=O)[O-])NC(=O)CC[C@H](N)C(=O)OCCCC | 5.73 | 57.1 | – | 107 µM | 4.70 | Activity [8]: Toxic
23 | CCCCOC(=O)CNC(=O)[C@H](CSc1ccc([N+](=O)[O-])cc1[N+](=O)[O-])NC(=O)CC[C@H](NC(=O)C(C)C)C(=O)OCCCC | 6.14 | > 411 | 4.51 | > 300 µM | – | –
24 | CCCCOC(=O)CNC(=O)[C@H](CSc1ccc([N+](=O)[O-])cc1[N+](=O)[O-])NC(=O)CC[C@H](NC(=O)CCC(C)C)C(=O)OCCCC | 5.99 | 82.3 | – | 84 µM | – | –
25 | N=C(N)c1ccc(OCCCCCOc2ccc(C(=N)N)cc2)cc1 | 9.48 | – | – | – | – | –
26 | COC(=O)CNC(=O)[C@H](CSCc1ccc(Br)cc1)NC(=O)CC[C@H](NC(=O)OCc1ccccc1)C(=O)OC | – | – | – | – | – | Activity [9]: Active; Drug uptake [10]: Active; Drug uptake [11]: 80%; Activity [12]: Active; Drug uptake [13]: 76%; pEC50 [14]: 4.52; Activity [15]: Active; Activity [16]: Active
